Reference: ChEMBL document CHEMBL1201862, “PubChem BioAssay data set” (2004)
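Results reflect a 48-hour exposure of cells in 96-well plates to compound at five concentrations. GI50 is the concentration that inhibits growth by half.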 Active and inactive are the calls of the source. Rule as the data show it: active = GI50 up to about 1.1 µM and inactive = higher.

Key:
Test in all cases: NCI anticancer screen, dose series, 48 h
CCRF-CEM = tested on: CCRF-CEM
EKVX = tested on: EKVX
HOP-62 = tested on: HOP-62
HOP-92 = tested on: HOP-92
HT-29 = tested on: HT-29
Hs-578T = tested on: Hs-578T
KM12 = tested on: KM12
M14 = tested on: M14
Malme-3M = tested on: Malme-3M
NCI-H226 = tested on: NCI-H226
NCI-H460 = tested on: NCI-H460
NCI-H522 = tested on: NCI-H522
OVCAR-5 = tested on: OVCAR-5
PC-3 = tested on: PC-3
SNB-75 = tested on: SNB-75
T47D = tested on: T47D
U-251 = tested on: U-251
UO-31 = tested on: UO-31
RXF 393 = tested on: RXF 393

| Structure (SMILES) | GI50 (CCRF-CEM) | GI50 (EKVX) | GI50 (HOP-62) | GI50 (HOP-92) | GI50 (HT-29) | GI50 (Hs-578T) | GI50 (KM12) | GI50 (M14) | GI50 (Malme-3M) | GI50 (NCI-H226) | GI50 (NCI-H460) | GI50 (NCI-H522) | GI50 (OVCAR-5) | GI50 (PC-3) | GI50 (SNB-75) | GI50 (T47D) | GI50 (U-251) | GI50 (UO-31) | GI50 (RXF 393) |
| --- | --- | --- | --- | --- | --- | --- | --- | --- | --- | --- | --- | --- | --- | --- | --- | --- | --- | --- | --- |
| O=c1[nH]nc(Cc2ccc(Cl)cc2)n1/N=C/c1c[nH]c2ccccc12 | > 100 µM (inactive) | > 100 µM (inactive) | > 100 µM (inactive) | > 100 µM (inactive) | > 100 µM (inactive) | > 100 µM (inactive) | > 100 µM (inactive) | > 100 µM (inactive) | > 100 µM (inactive) | > 100 µM (inactive) | > 100 µM (inactive) | > 100 µM (inactive) | > 100 µM (inactive) | > 100 µM (inactive) | > 100 µM (inactive) | > 100 µM (inactive) | > 100 µM (inactive) | > 100 µM (inactive) | – |
| CC1=NN(c2nc(N)nc(CS(C)(=O)=O)n2)C(C)(C)C1 | > 100 µM (inactive) | > 100 µM (inactive) | > 100 µM (inactive) | > 100 µM (inactive) | > 100 µM (inactive) | > 100 µM (inactive) | > 100 µM (inactive) | > 100 µM (inactive) | – | – | > 100 µM (inactive) | – | – | > 100 µM (inactive) | > 100 µM (inactive) | > 100 µM (inactive) | > 100 µM (inactive) | > 100 µM (inactive) | > 100 µM (inactive) |
| COC(=O)NN=C1C(C)(C)C(=O)C1(C)C | > 100 µM (inactive) | > 100 µM (inactive) | > 100 µM (inactive) | > 100 µM (inactive) | > 100 µM (inactive) | – | > 100 µM (inactive) | > 100 µM (inactive) | > 100 µM (inactive) | > 100 µM (inactive) | > 100 µM (inactive) | > 100 µM (inactive) | > 100 µM (inactive) | – | > 100 µM (inactive) | – | > 100 µM (inactive) | > 100 µM (inactive) | > 100 µM (inactive) |
| C[C@@H]1OC2(O)[C@@H]3CCCN3C(=O)N(Cc3ccccc3)N2C1=O (stereo not given in full) | > 100 µM (inactive) | > 100 µM (inactive) | > 100 µM (inactive) | > 100 µM (inactive) | > 100 µM (inactive) | > 100 µM (inactive) | > 100 µM (inactive) | > 100 µM (inactive) | > 100 µM (inactive) | > 100 µM (inactive) | > 100 µM (inactive) | – | > 100 µM (inactive) | > 100 µM (inactive) | 0.331 µM (active) | > 100 µM (inactive) | – | – | > 100 µM (inactive) |
| O=S(=O)(/N=C1/S/C(=N\c2ccccc2)N(c2ccccc2)/C1=N/S(=O)(=O)c1ccccc1)c1ccccc1 | 28.7 µM (inactive) | 21.5 µM (inactive) | 28.5 µM (inactive) | 13.6 µM (inactive) | 22.8 µM (inactive) | 29.6 µM (inactive) | 19.4 µM (inactive) | 20.4 µM (inactive) | 22.5 µM (inactive) | 19.8 µM (inactive) | 21.3 µM (inactive) | – | 20.8 µM (inactive) | > 10 µM (inactive) | 20.7 µM (inactive) | – | 22.3 µM (inactive) | 15.8 µM (inactive) | – |
| CN1CCN(Cc2ccc(C(=S)Nc3ccccc3)s2)CC1 | 24 µM (inactive) | 65.3 µM (inactive) | 93.8 µM (inactive) | – | 19.6 µM (inactive) | 39.2 µM (inactive) | 36.3 µM (inactive) | 16.7 µM (inactive) | 89.5 µM (inactive) | – | 36.4 µM (inactive) | 31 µM (inactive) | 45.8 µM (inactive) | 69.7 µM (inactive) | – | 59.2 µM (inactive) | 64.7 µM (inactive) | 36.3 µM (inactive) | – |
| Nc1n[n+](CC(=O)c2ccccc2)c2sc(-c3ccccc3)nn12 | 45.7 µM (inactive) | > 100 µM (inactive) | > 100 µM (inactive) | – | 55 µM (inactive) | > 100 µM (inactive) | 46.1 µM (inactive) | 61.2 µM (inactive) | > 100 µM (inactive) | > 100 µM (inactive) | > 100 µM (inactive) | 95.5 µM (inactive) | > 100 µM (inactive) | 73.8 µM (inactive) | > 100 µM (inactive) | > 100 µM (inactive) | > 100 µM (inactive) | 79.3 µM (inactive) | > 100 µM (inactive) |
| CNc1ncnc2c1nnn2C | > 100 µM (inactive) | > 100 µM (inactive) | > 100 µM (inactive) | > 100 µM (inactive) | > 100 µM (inactive) | – | > 100 µM (inactive) | > 100 µM (inactive) | > 100 µM (inactive) | > 100 µM (inactive) | – | > 100 µM (inactive) | – | > 100 µM (inactive) | > 100 µM (inactive) | > 100 µM (inactive) | > 100 µM (inactive) | > 100 µM (inactive) | > 100 µM (inactive) |
| COc1ccc(CN2C[C@H]3[C@@H](CC(=O)O[C@H]3C)CC2=O)cc1 | > 100 µM (inactive) | > 100 µM (inactive) | > 100 µM (inactive) | > 100 µM (inactive) | > 100 µM (inactive) | > 100 µM (inactive) | > 100 µM (inactive) | > 100 µM (inactive) | > 100 µM (inactive) | – | > 100 µM (inactive) | > 100 µM (inactive) | > 100 µM (inactive) | > 100 µM (inactive) | > 100 µM (inactive) | – | > 100 µM (inactive) | > 100 µM (inactive) | > 100 µM (inactive) |
| NC(=O)NCCCC(NC(=O)OCCCCCCn1ccc(=O)[nH]c1=O)C(=O)O (stereo not given) | > 100 µM (inactive) | > 100 µM (inactive) | > 100 µM (inactive) | > 100 µM (inactive) | > 100 µM (inactive) | > 100 µM (inactive) | > 100 µM (inactive) | > 100 µM (inactive) | – | > 100 µM (inactive) | > 100 µM (inactive) | – | > 100 µM (inactive) | > 100 µM (inactive) | > 100 µM (inactive) | > 100 µM (inactive) | > 100 µM (inactive) | > 100 µM (inactive) | > 100 µM (inactive) |
| COc1ccc(NCC(=O)Nn2c(C)nc3ccc(S(=O)(=O)Nc4ccc(OC)cc4)cc3c2=O)cc1 | > 100 µM (inactive) | > 100 µM (inactive) | > 100 µM (inactive) | > 100 µM (inactive) | > 100 µM (inactive) | > 100 µM (inactive) | > 100 µM (inactive) | > 100 µM (inactive) | > 100 µM (inactive) | > 100 µM (inactive) | > 100 µM (inactive) | > 100 µM (inactive) | > 100 µM (inactive) | > 100 µM (inactive) | > 100 µM (inactive) | – | > 100 µM (inactive) | > 100 µM (inactive) | – |
| CSC1=C(SC)SC(=C2SC3=C(SC(=C4SCCS4)S3)S2)S1 | > 100 µM (inactive) | > 100 µM (inactive) | > 100 µM (inactive) | > 100 µM (inactive) | > 100 µM (inactive) | > 100 µM (inactive) | > 100 µM (inactive) | > 100 µM (inactive) | > 100 µM (inactive) | > 100 µM (inactive) | > 100 µM (inactive) | > 100 µM (inactive) | > 100 µM (inactive) | > 100 µM (inactive) | > 100 µM (inactive) | > 100 µM (inactive) | > 100 µM (inactive) | > 100 µM (inactive) | – |
| CCOc1ccc2c(c1)/C(=C(\C(Cl)=C(Cl)Cl)[N+](=O)[O-])N2 | 47.9 µM (inactive) | 37.6 µM (inactive) | > 100 µM (inactive) | – | > 100 µM (inactive) | > 100 µM (inactive) | > 100 µM (inactive) | > 100 µM (inactive) | > 100 µM (inactive) | > 100 µM (inactive) | > 100 µM (inactive) | – | > 100 µM (inactive) | > 100 µM (inactive) | > 100 µM (inactive) | 48.9 µM (inactive) | > 100 µM (inactive) | > 100 µM (inactive) | – |
| CC(N)(/C=C/c1ccccc1)C(=O)O (stereo not given) | – | > 100 µM (inactive) | > 100 µM (inactive) | > 100 µM (inactive) | > 100 µM (inactive) | 67.3 µM (inactive) | > 100 µM (inactive) | > 100 µM (inactive) | > 100 µM (inactive) | > 100 µM (inactive) | > 100 µM (inactive) | > 100 µM (inactive) | > 100 µM (inactive) | > 100 µM (inactive) | – | – | > 100 µM (inactive) | > 100 µM (inactive) | – |
| O=c1oc2ccc3ccccc3c2cc1-c1nnc(Nc2ccccc2)s1 | – | 46.5 µM (inactive) | – | – | 41 µM (inactive) | 65 µM (inactive) | 50.7 µM (inactive) | 37.2 µM (inactive) | – | – | 18.7 µM (inactive) | 0.986 µM (active) | > 100 µM (inactive) | 17.1 µM (inactive) | – | 77.1 µM (inactive) | 7.59 µM (inactive) | 21.4 µM (inactive) | 15.8 µM (inactive) |
| Cc1cc(-c2no[n+]([O-])c2-c2cc(C)sc2S(C)(=O)=O)c(S(C)(=O)=O)s1 | > 100 µM (inactive) | > 100 µM (inactive) | > 100 µM (inactive) | > 100 µM (inactive) | > 100 µM (inactive) | > 100 µM (inactive) | > 100 µM (inactive) | > 100 µM (inactive) | – | > 100 µM (inactive) | > 100 µM (inactive) | 87.5 µM (inactive) | > 100 µM (inactive) | > 100 µM (inactive) | > 100 µM (inactive) | 89.5 µM (inactive) | > 100 µM (inactive) | > 100 µM (inactive) | – |
| COC(=O)C1(C(=O)OC)N=C(C)OC1c1ccccn1 (stereo not given) | > 100 µM (inactive) | > 100 µM (inactive) | > 100 µM (inactive) | > 100 µM (inactive) | – | – | > 100 µM (inactive) | > 100 µM (inactive) | – | > 100 µM (inactive) | > 100 µM (inactive) | – | > 100 µM (inactive) | > 100 µM (inactive) | > 100 µM (inactive) | > 100 µM (inactive) | > 100 µM (inactive) | > 100 µM (inactive) | > 100 µM (inactive) |
